# According to US20250352482A1, “AMORPHOUS DOSAGE FORM CONTAINING EBSELEN” (SOUND PHARMACEUTICALS INC., priority 2022, published 2025):
# Conditions: minipig, in vivo
# Procedure: Method: The purpose of this study was to determine the pharmacokinetics of ebselen and its metabolites in male and female bama mini-pigs following twice daily (BID) oral administration of two test formulations, control ebselen capsules (Formulation 1) and ebselen-ASD/HME capsules (Formulation 2) at 200 mg/animal for 2.5 days. Three male and three female naïve Bama mini-pigs were assigned to this study. In phase 1, animals received five oral doses (BID on day 1, BID on day 2 and QD on day 3) of Formulation 1: each dose comprised control ebselen capsules (1 (Ebselen capsule, 200 mg+3 placebo capsules). After one week wash out period, the same animals received five oral doses (BID on day 1, BID on day 2 and QD on day 3) of Formulation 2: each dose comprised four Ebselen ASD/HME capsules (Formulation 2), 50 mg each. In each phase, there were 12 hour intervals between dosing. Blood samples were collected at 0.5, 1, 2, 3, 4, 6, 8 and 12 hours post the first and fifth dosing. Concentrations of ebselen, and ebselen glucuronide metabolite in plasma samples were determined by LC-MS/MS.
smiles,measurement,value
"O=c1c2ccccc2[se]n1-c1ccccc1 [ebselen, 2-Phenyl-1,2-benzoselenazol-3 (2H)-one]",accumulation on systemic exposure to ebselen,No obvious accumulation
